Test results: patent US8586719B2, “Triterpenes for modulating gene expression and cell membrane, and as antiprotozoal agents” (Pacific Arrow Limited, priority 2005, dated 2013)
Values after ≈ are worked out from the molar mass of the structure shown.

What was measured:
[1] = tested on: insulin-like growth factor binding protein 6 (IGFBP6); assay: Microarray gene expression in ES2 cells: IGFBP6; type: cell-based, human; conditions: probe set 203851_at
Excerpt: (§1) The composition comprises bioactive compounds from natural plants or synthesis. The majority of the plants are from the Sapindaceae family, which has 140-150 genera with 1400-2000 species. The program is based on our purification methods and biological assays including the MTT assay See International Application No. PCT/US05/31900, filed Sep. 7, 2005, U.S. Ser. No. 11/289,142, filed Nov. 28, 2005, and U.S. Ser. No. 11/131,551, filed May 17, 2005, and PCT/US2008/002086, 1188-ALA-PCT, filed Feb. 15, 2008, the contents of which are incorporated herein by reference. The details of Analysis of gene expression of ES2 cells after Y-treatment by Microarray, Data Analysis Methods and Western blot in PCT/US2008/002086, 1188-ALA-PCT, filed Feb. 15, 2008, the contents of which are incorporated herein by reference

[2] = tested on: Glypican 6 (GPC6); assay: Microarray gene expression in ES2 cells: Glypican; type: cell-based, human
Excerpt: as §1

[3] = tested on: insulin-like growth factor binding protein 1 (IGFBP1); assay: Microarray gene expression in ES2 cells: IGFBP1; type: cell-based, human; conditions: probe set 205302_at
Excerpt: as §1

[4] = tested on: insulin-like growth factor binding protein 7 (IGFBP7); assay: Microarray gene expression in ES2 cells: IGFBP7; type: cell-based, human; conditions: probe set 201163_s_at
Excerpt: as §1

[5] = tested on: Leishmania Major (promastigotes); assay: Cell growth of Leishmania parasites by MTT assay; type: cell-based; conditions: Leishmania major, read-out: IC50, cytotoxic to Leishmania Major (promastigotes)
Method: Method: Leishmania parasites (Leishmania major: MRHO/SU/59/P/LV39) were grown in culture medium in a T75 flask at room temperature. Promastigotes of Leishmania major (approximately 40 million per ml) were used in the experiment. 1.2 ml cell culture was transferred to a well of the 24-wells plate. Saponin Y10 (0.2 ml in medium) with different concentrations (final 6.25-200 ug/ml) was added to culture and cells were grown for 1-5 days at room temperature. At the end of drug-treatment, 150 ul of MTT (5 mg/ml in PBS) was added to each well and incubated for 4 hours. Formazan formed in cells was dissolved with DMSO and the OD at 490 nm was determined by an ELISA reader.

[6] = tested on: Fibronectin; assay: Fibronectin secretion, lung carcinoma cells (H460); type: cell-based, human; conditions: Homo sapiens, NCI-H460; H460 cells; 20 ug/ml
Method: Reduction of Fibronectin secretion from ES2 cells after xanifolia-Y treatment. • (Results of F1, F3, F4, F5, F7, F8, F11, F12A, F15, F16, F17) Data in PCT/US2008/002086, 1188-ALA-PCT, filed Feb. 15, 2008 are incorporated herein by reference • (F11) For lung carcinoma cells (H460), at concentration of 20 ug/ml, there are inhibitions of Fibronectin secretion ranged from 20-60%. • (F12A) For bladder carcinoma cells (HTB-9), Xanifolia-Y (10 ug/ml) inhibits 50% of Fibronectin secretion. • (F15) In liver HepG2 cells. 10 ug/ml of xanifolia-Y inhibits 42% secretion of Fibronectin. • (F16) Incubation of brain glioblastoma T98G cells with 10 ug/ml of xanifolia-Y inhibits 27% Fibronectin secretion and with 20 ug/ml Y inhibits 74% Fibronectin secretion. • (F17) For skin SK-MeI-5 cells, the inhibition is 40-57% with 20 ug/ml of Xanifolia-Y.

[7] = tested on: Angiopoietin 2 (Ang2); assay: Up regulation of Angiopoietin 2 (Ang2) in ES2 cells; type: cell-based, human; conditions: study in PCT/US2008/002086
Excerpt: The results of study in PCT/US2008/002086, 1188-ALA-PCT, filed Feb. 15, 2008 are incorporated herein by reference.

[8] = tested on: angiopoietin-like 1; assay: Microarray gene expression in ES2 cells: angiopoietin-like 1; type: cell-based, human; conditions: micro array
Excerpt: as §1
Angiogenesis is a process involving the growth of new blood vessels. It is a normal process in growth and development. However, this is also a fundamental step in the transition of tumors from a dormant state to a malignant state. The angiopoietins are protein growth factors that modulate angiogenesis. […]

[9] = tested on: insulin-like growth factor binding protein 3 (IGFBP3); assay: Microarray gene expression in ES2 cells: IGFBP3; type: cell-based, human
Excerpt: as §1

C/C=C(/C)C(=O)O[C@H]1[C@H](OC(=O)/C(C)=C\C)[C@@]2(CO)C(CC1(C)C)C1=CCC3[C@@]4(C)CC[C@H](O[C@@H]5OC(C(=O)O)[C@@H](O)[C@@H](O[C@@H]6O[C@@H](CO)[C@@H](O)C6O)C5O[C@@H]5OC(CO)[C@H](O)[C@@H](O)C5O)C(C)(C)C4CC[C@@]3(C)[C@]1(C)[C@@H](O)[C@H]2O (stereo partly drawn) [Y, 3-O-[β-D-galactopyranosyl(1→2)]-α-L-arabinofuranosy (1→3)-β-D-glucuronopyranosyl-21,22-O-diangeloyl-3β, 15α, 16α, 21β, 22α, 28-hexahydroxyolean-12-ene]
IGFBP6 expression, treated/D (DMSO control) [1]: −1.3 | GPC6 expression, treated/D (DMSO control) ([2]; probe set 227059_at): −2.2 | GPC6 expression, treated/D (DMSO control) ([2]; probe set 243865_x_at): −2.7 | IGFBP1 expression, treated/D (DMSO control) [3]: −1.7 | IGFBP7 expression, treated/D (DMSO control) [4]: −1.4 | IC50 [5]: 15 µg/mL (≈ 13.1 µM) | inhibition at 20 µg/mL [6]: 20 to 60% | Angiopoietin 2 (Ang2) in ES2 cells [7]: Up regulation | gene expression of angiopoietin-like 1 [8]: inhibit | IGFBP3 expression, treated/D (DMSO control) ([9]; probe set 210095_s_at): −4.0 | IGFBP3 expression, treated/D (DMSO control) ([9]; probe set 212143_s_at): −3.7
